Experiments:
basal cell carcinoma = experiment: Basal cell carcinoma in K14-CreER; Ptch1fl/fl; p53fl/fl mice treated with GDC-0449; assay type: in vivo
Procedure: Harvested skin from treated animals was processed for Hematoxylin and Eosin (H&E) staining using established protocols. Alternatively, backskin from treated animals was fixed over night in 4% paraformaldehyde/PBS solution, washed, incubated in 30% sucrose/PBS solution overnight, and embedded in frozen OCT. Sections were then cut at 8 um from the frozen blocks and stained for the apoptosis marker cleaved caspase 3 (1:1000), GFP (1:1000), or Keratin 5 (1:1000). Sections were counterstained with DAPI.

[1] = test system: Superficial Basal Cell Carcinoma (BCC); experiment: DT cell ablation in Superficial Basal Cell Carcinoma (BCC), K14CreER/+; p53loxP/loxP; PtchloxP/loxP; LGR5DTReGFP/+ mice; H&E and immunofluorescent staining; assay type: in vivo; conditions: 75 mg/kg GDC-0449 po BID for 38 days with Diphtheria Toxin 50 ug/kg every other day for the final 8 days, Lgr5DTR.EGFP mice (FIG. 4 A-B)
Procedure: K14^CreER/+; p53^loxP/loxP; Ptch^loxP/loxP; LGR5^DTReGFP/+ mice were generated by breeding p53^loxP/loxPPtch^loxP/loxP; LGR5^DTReGFP/+ mice with p53^loxP/loxP; Ptch^loxP/+; K14^CreER/−. Animals showing telltale signs of Superficial BCC disease such as loss of fur, scruffy coat, thickening of the ears or tail skin were put on study. Animals were typically placed on study at 7 weeks of age. K14^CreER/+; p53^loxP/loxP; Ptch^loxP/loxP; LGR5^DTReGFP/+ mice were treated with the regimes as follows. To test the effects of DT treatments on residual superficial BCC, mice were treated Vismodegib (GDC-0449) po bid at 75 mg/kg for 38 days with concomitant with Diphtheria Toxin (DT) at 50 ug/kg every other day for the final 8 days starting at […]. Control mice were treated with Vismodegib (GDC-0449) po bid at 75 mg/kg for 38 days concomitant with 200 uL IP saline for the final 8 days of treatment. In addition, animals showing signs of disease (listed above) were treated with saline or DT alone at 50 ug/kg every other day for 5 days to test the effect of single DT treatments.
Harvested skin from treated animals was processed for Hematoxylin and Eosin (H&E) staining using established protocols. Alternatively, backskin from treated animals was fixed over night in 4% paraformaldehyde/PBS solution, washed, incubated in 30% sucrose/PBS solution overnight, and embedded in frozen OCT. […]

For `CS(=O)(=O)c1ccc(C(=O)Nc2ccc(Cl)c(-c3ccccn3)c2)c(Cl)c1` [GDC-0449, 2-chloro-N-[4-chloro-3-(pyridin-2-yl)phenyl]-4-(methylsulfonyl)benzamide], the tumor regression (basal cell carcinoma; K14-CreER, Ptch1fl/fl, p53fl/fl mice, compared to untreated control mice (FIG. 2)) was “extensive tumor regression”, the residual disease (basal cell carcinoma; after 75 mg/kg GDC-0449 po BID for 56 days (FIG. 2 C-D)) was “still observed” and the tumor regression [1] was “tumor regression”.
